{"source": "patent US20090029949A1", "about": "“GPCR Ligands Identified by Computational Modeling” (priority 2006, published 2009)", "key": {"[1]": {"target": "T1, S1P1 mutant I5.41F (Homo sapiens, UniProt P21453, I203F)", "T1 construct": "expressed in transfected cells; host or cells: RH7777 (transient, pcDNA3.1)", "T1 sequence (P21453 whole entry I203F)": "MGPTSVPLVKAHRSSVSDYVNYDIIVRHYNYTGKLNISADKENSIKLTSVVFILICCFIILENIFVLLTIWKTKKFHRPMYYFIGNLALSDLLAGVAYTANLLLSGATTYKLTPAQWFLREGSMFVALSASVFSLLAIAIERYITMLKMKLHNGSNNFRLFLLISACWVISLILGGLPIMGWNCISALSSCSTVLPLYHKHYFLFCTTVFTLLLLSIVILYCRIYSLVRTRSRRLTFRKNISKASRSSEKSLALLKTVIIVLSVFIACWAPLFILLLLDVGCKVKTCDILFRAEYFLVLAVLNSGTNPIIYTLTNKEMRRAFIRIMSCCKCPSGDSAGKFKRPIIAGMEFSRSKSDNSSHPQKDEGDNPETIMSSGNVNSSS", "assay": "[35S]GTPγS binding, S1P1 I5.41F", "format": "biochemical", "conditions": "S1P-induced, S1P1 I5.41F in RH7777 cells", "method": "(§1) RH7777 and HEK-293 cells (ATCC, Manassas, Va.) were maintained in Dulbecco's modified minimal essential medium (DMEM) containing 10% fetal bovine serum (Hyclone, Logan, Utah). Cells (2×10^6) were transfected with 2 μg of plasmid DNA with Effectene (Qiagen, Valencia, Calif.) according to the manufacturer's instructions, for 24 h. Before ligand binding and receptor activation assays, the cells were washed twice with serum-free DMEM and serum-starved for at least 6 h.\n(§2) S1P1 Receptor Activation Assays Receptor functional assays were performed in transiently transfected RH7777 cells by measuring S1P-activated [^35S]GTPγS binding as previously described (28)."}, "[2]": {"target": "T2, S1P1 mutant L3.36E (Homo sapiens, UniProt P21453, L128E)", "T2 sequence (P21453 whole entry L128E)": "as the sequence (P21453 whole entry I203F) above, with L128E, F203I counted along it", "assay": "[32P]S1P radioligand binding, RH7777 cells, L3.36E", "design": "expressed in transfected cells; host or cells: RH7777 (transient, pcDNA3.1)", "conditions": "radioligand 50 nM, S1P1 L3.36E", "method": "as §1\nThe S1P binding assays were done essentially as previously described (28). Transfected RH7777 cells (5×10^5) were incubated at 4° C. in 20 mM Tris-HCl (pH 7.5) binding buffer containing 100 mM NaCl, 15 mM NaF, protease inhibitor cocktail (Sigma-Aldrich), and 0.2 mg/ml essentially fatty-acid free BSA with 1 nM [^32P]S1P in 50 nM S1P for 40 min. Cells were centrifuged and washed twice in binding buffer. The final pellet was resuspended in 2:1 CHCl3/MeOH and the suspension was equilibrated in scintillation fluid overnight. Cell-bound radioactivity was measured by liquid scintillation counting using a Beckman LS5000 TA counter (Beckman Coulter, Irvine, Calif.). Specific binding was defined as the difference between total binding and non-specific binding (in the presence of 2-5 μM cold S1P). Standard errors were computed on the basis of triplicate samples from two simultaneous transfections."}, "[3]": {"target": "T3, S1P1 mutant V6.37L (Homo sapiens, UniProt P21453, V258L)", "T3 construct": "expressed in transfected cells; host or cells: RH7777", "T3 sequence (P21453 whole entry V258L)": "as the sequence (P21453 whole entry I203F) above, with F203I, V258L counted along it", "assay": "[35S]GTPγS binding, S1P1 V6.37L", "format": "biochemical", "conditions": "S1P-induced, S1P1 V6.37L in RH7777 cells", "method": "as §1, §2"}, "[4]": {"target": "T4, S1P1 mutant V5.47T (Homo sapiens, UniProt P21453, V209T)", "T4 construct": "expressed in transfected cells; host or cells: RH7777", "T4 sequence (P21453 whole entry V209T)": "as the sequence (P21453 whole entry I203F) above, with F203I, V209T counted along it", "assay": "[35S]GTPγS binding, S1P1 V5.47T", "format": "biochemical", "conditions": "S1P-induced, S1P1 V5.47T in RH7777 cells", "method": "as §1, §2"}, "[5]": {"target": "T5, S1P1 mutant V6.40L (Homo sapiens, UniProt P21453, V261L)", "T5 construct": "expressed in transfected cells; host or cells: RH7777", "T5 sequence (P21453 whole entry V261L)": "as the sequence (P21453 whole entry I203F) above, with F203I, V261L counted along it", "assay": "[35S]GTPγS binding, S1P1 V6.40L", "format": "biochemical", "conditions": "S1P-induced, S1P1 V6.40L in RH7777 cells", "method": "as §1, §2"}, "[6]": {"target": "T6, S1P1 mutant K5.38A (Homo sapiens, UniProt P21453, K200A)", "T6 construct": "expressed in transfected cells; host or cells: RH7777 (transient, pcDNA3.1)", "T6 sequence (P21453 whole entry K200A)": "as the sequence (P21453 whole entry I203F) above, with K200A, F203I counted along it", "assay": "[35S]GTPγS binding, S1P1 K5.38A", "format": "biochemical", "conditions": "S1P-induced, S1P1 K5.38A in RH7777 cells", "method": "as §1, §2"}, "[7]": {"target": "T2, S1P1 mutant L3.36E", "assay": "[32P]S1P competition binding, HEK-293 cells, L3.36E", "design": "expressed in transfected cells", "conditions": "S1P1 L3.36E", "method": "(§3) For the competition assays, HEK-293 cells were used. Briefly, 4×10^5 cells were plated in 24-well dishes and allowed to adhere overnight. The cells were then transfected with 0.4 μg of the cDNA using Lipofectamine 2000 (Invitrogen) and the transfection proceeded for 48 h. After washing the cells twice with ice-cold binding buffer (20 mM Tris-HCl, pH 7.4 and 150 mM NaCl), 0.1 nM [^32P]S1P and competing concentrations of cold S1P (1 nM-10 μM), resuspended in binding buffer+4% BSA, were applied to the cells and incubated on ice for 30 min. After washing the cells twice with ice-cold binding buffer+0.4% BSA, the cells were lysed with 0.5% SDS and equilibrated in scintillation fluid. The samples were measured in triplicate."}, "[8]": {"target": "T7, S1P1 mutant L5.51E (Homo sapiens, UniProt P21453, L213E)", "T7 construct": "expressed in transfected cells; host or cells: RH7777 (transient, pcDNA3.1)", "T7 sequence (P21453 whole entry L213E)": "as the sequence (P21453 whole entry I203F) above, with F203I, L213E counted along it", "assay": "[35S]GTPγS binding, S1P1 L5.51E", "format": "biochemical", "conditions": "S1P-induced, S1P1 L5.51E in RH7777 cells", "method": "as §1, §2"}, "[9]": {"target": "T8, S1P1 mutant L6.41G (Homo sapiens, UniProt P21453, L262G)", "T8 construct": "expressed in transfected cells; host or cells: RH7777", "T8 sequence (P21453 whole entry L262G)": "as the sequence (P21453 whole entry I203F) above, with F203I, L262G counted along it", "assay": "[35S]GTPγS binding, S1P1 L6.41G", "format": "biochemical", "conditions": "S1P-induced, S1P1 L6.41G in RH7777 cells; mutant not detected at the cell surface", "method": "as §1, §2"}, "[10]": {"target": "T9, S1P1 mutant L6.41E (Homo sapiens, UniProt P21453, L262E)", "T9 construct": "expressed in transfected cells; host or cells: RH7777", "T9 sequence (P21453 whole entry L262E)": "as the sequence (P21453 whole entry I203F) above, with F203I, L262E counted along it", "assay": "[35S]GTPγS binding, S1P1 L6.41E", "format": "biochemical", "conditions": "S1P-induced, S1P1 L6.41E in RH7777 cells", "method": "as §1, §2"}, "[11]": {"target": "T2, S1P1 mutant L3.36E", "assay": "[35S]GTPγS binding, S1P1 L3.36E", "format": "biochemical", "design": "expressed in transfected cells; host or cells: RH7777 (transient, pcDNA3.1)", "conditions": "S1P-induced, S1P1 L3.36E in RH7777 cells", "method": "as §1, §2"}, "[12]": {"target": "T10, S1P1 mutant W6.48A (Homo sapiens, UniProt P21453, W269A)", "T10 construct": "expressed in transfected cells", "T10 sequence (P21453 whole entry W269A)": "as the sequence (P21453 whole entry I203F) above, with F203I, W269A counted along it", "assay": "[32P]S1P competition binding, HEK-293 cells, W6.48A", "conditions": "S1P1 W6.48A", "method": "as §3"}, "[13]": {"target": "T10, S1P1 mutant W6.48A", "assay": "[35S]GTPγS binding, S1P1 W6.48A", "format": "biochemical", "conditions": "S1P-induced, S1P1 W6.48A in RH7777 cells", "method": "as §1, §2"}, "[14]": {"target": "T11, S1P1 mutant I5.41A (Homo sapiens, UniProt P21453, I203A)", "T11 construct": "expressed in transfected cells; host or cells: RH7777 (transient, pcDNA3.1)", "T11 sequence (P21453 whole entry I203A)": "as the sequence (P21453 whole entry I203F) above, with F203A counted along it", "assay": "[35S]GTPγS binding, S1P1 I5.41A", "format": "biochemical", "conditions": "S1P-induced, S1P1 I5.41A in RH7777 cells", "method": "as §1, §2"}, "[15]": {"target": "T12, S1P1 mutant F6.44G (Homo sapiens, UniProt P21453, F265G)", "T12 construct": "expressed in transfected cells; host or cells: RH7777", "T12 sequence (P21453 whole entry F265G)": "as the sequence (P21453 whole entry I203F) above, with F203I, F265G counted along it", "assay": "[35S]GTPγS binding, S1P1 F6.44G", "format": "biochemical", "conditions": "S1P-induced, S1P1 F6.44G in RH7777 cells", "method": "as §1, §2"}, "[16]": {"conditions": "competition with cold S1P, read-out: KD + s.d."}}, "data": [{"smiles": "CCCCCCCCCCCCC/C=C/[C@@H](O)[C@@H](N)COP(=O)(O)O", "note": "[S1P, Sphingosine 1-phosphate]", "values": [{"measurement": "EC50", "setting": "[1]", "value": 18.9, "unit": "nM"}, {"measurement": "Emax", "setting": "[1]; read-out: % WT Emax + s.d.", "value": 27, "unit": "%"}, {"measurement": "[32P]S1P binding relative to WT", "setting": "[2]", "value": "> 50 % of the WT"}, {"measurement": "EC50", "setting": "[3]", "value": 37.6, "unit": "nM"}, {"measurement": "Emax", "setting": "[3]; read-out: % WT Emax + s.d.", "value": 247, "unit": "%"}, {"measurement": "EC50", "setting": "[4]", "value": 89, "unit": "nM"}, {"measurement": "Emax", "setting": "[4]; read-out: % WT Emax + s.d.", "value": 100, "unit": "%"}, {"measurement": "% WT Emax + s.d.", "setting": "[5]", "value": "∞"}, {"measurement": "EC50 + s.d.", "setting": "[5]", "value": "∞"}, {"measurement": "EC50", "setting": "[6]", "value": 32.4, "unit": "nM"}, {"measurement": "Emax", "setting": "[6]; read-out: % WT Emax + s.d.", "value": 97, "unit": "%"}, {"measurement": "Bmax", "setting": "[7]", "value": 1980, "unit": "fmol"}, {"measurement": "Kd", "setting": "[7]; [16]", "value": 27.8, "unit": "nM"}, {"measurement": "% WT Emax + s.d.", "setting": "[8]", "value": "∞"}, {"measurement": "EC50 + s.d.", "setting": "[8]", "value": "∞"}, {"measurement": "% WT Emax + s.d.", "setting": "[9]", "value": "∞"}, {"measurement": "EC50 + s.d.", "setting": "[9]", "value": "∞"}, {"measurement": "EC50", "setting": "[10]", "value": "4.1 ± 0.63", "unit": "nM"}, {"measurement": "Emax", "setting": "[10]; read-out: % WT Emax + s.d.", "value": 59, "unit": "%"}, {"measurement": "EC50", "setting": "[11]", "value": "0.62 ± 0.46", "unit": "nM"}, {"measurement": "Emax", "setting": "[11]; read-out: % WT Emax + s.d.", "value": "39 ± 2.8", "unit": "%"}, {"measurement": "Bmax", "setting": "[12]", "value": 2080, "unit": "fmol"}, {"measurement": "Kd", "setting": "[12]; [16]", "value": 38.5, "unit": "nM"}, {"measurement": "EC50", "setting": "[13]", "value": "13 ± 4.2", "unit": "nM"}, {"measurement": "Emax", "setting": "[13]; read-out: % WT Emax + s.d.", "value": "34 ± 1.5", "unit": "%"}, {"measurement": "EC50", "setting": "[14]", "value": 157, "unit": "nM"}, {"measurement": "Emax", "setting": "[14]; read-out: % WT Emax + s.d.", "value": 26, "unit": "%"}, {"measurement": "% WT Emax + s.d.", "setting": "[15]", "value": "∞"}, {"measurement": "EC50 + s.d.", "setting": "[15]", "value": "∞"}]}]}
